The text below walks through data of patent US20150259344A1, “IMIDAZOLE DERIVATIVE” (DAINIPPON SUMITOMO PHARMA CO., LTD., priority 2012, published 2015).

The test has as its target T1, human α7 nAChR (Homo sapiens, UniProt P36544).
T1 construct: expressed in transfected cells
The test can be described thus: Evaluation of PAM activity with human α7 nACh receptor stably expressing cells (aequorin luminescence, FDSS7000). The class given is cell-based. The settings on record: ACh at EC20, ratio of RLU (Max-Min) to control wells; for activity at 10 µM: read-out: α7PAM (%) @10 μM; for activity at 1 µM: 1 μM test compound (values marked *, footnote of Table 25), read-out: α7PAM (%) @1 μM. Put shortly: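 Human α7 nAChR stable cells loaded with 4 μM Viviren (final) for 4 h at room temperature in the dark. Compounds in Hanks/20 mM HEPES/0.2% BSA were added and luminescence recorded on FDSS7000. PAM activity = RLU (Max-Min) ratio of test wells to control wells.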

T1 sequence (P36544 23-502): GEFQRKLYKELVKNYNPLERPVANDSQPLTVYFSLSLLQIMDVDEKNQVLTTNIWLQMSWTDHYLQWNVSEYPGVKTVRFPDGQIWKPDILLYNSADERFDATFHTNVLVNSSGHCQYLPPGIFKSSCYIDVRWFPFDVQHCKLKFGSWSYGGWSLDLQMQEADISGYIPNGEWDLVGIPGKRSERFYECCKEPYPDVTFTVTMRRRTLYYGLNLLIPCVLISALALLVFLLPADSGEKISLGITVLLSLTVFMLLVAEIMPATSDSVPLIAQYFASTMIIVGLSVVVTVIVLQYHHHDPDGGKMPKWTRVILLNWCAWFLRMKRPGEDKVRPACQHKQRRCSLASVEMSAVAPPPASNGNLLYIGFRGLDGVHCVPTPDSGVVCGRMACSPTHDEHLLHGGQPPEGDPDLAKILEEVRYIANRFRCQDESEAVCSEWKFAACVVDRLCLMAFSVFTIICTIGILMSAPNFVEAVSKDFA

For the compound `O=C(NC1CCOCC1)N1CCC(n2cnc(-c3ccc(Cl)cc3F)c2)CC1` [Example 248], for the setting “10 μM test compound”, the activity at 10 µM was found to be 901%.
On the same count and under the same terms, under `O=C(NC1CCOCC1)N1CCC(n2cnc(-c3ccc(C(F)(F)F)c(F)c3)c2)CC1` [Example 251] stands 369%.
Same read-out and setting: under `O=C(NC1CCOCC1)N1CCC(n2cnc(-c3ccccc3F)c2Cl)CC1` [Example 252] stands 648%.
With `O=C(NC1CCOCC1)N1CCC(n2cnc(-c3cccc(F)c3)c2Cl)CC1` [Example 253], the activity at 10 µM (10 μM test compound) turned out to be 899%.
Same read-out and setting: the value for `N#Cc1c(-c2ccc(F)cc2)ncn1C1CCN(C(=O)NC2CCCCC2)CC1` [Example 255] was 759%; that for `Cc1c(-c2ccc(F)cc2)ncn1C1CCN(C(=O)NC(C)(C)C)CC1` [Example 257] was 439%.
The same measure, in the same setting: under `Cc1c(-c2ccc(F)cc2)ncn1C1CCN(C(=O)NC2CCOCC2)CC1` [Example 259] stands 420%; under `CC(C)(F)C(=O)N1CCC(n2cnc(-c3ccc(F)cc3)c2)CC1` [Example 260], 146%; under `O=C(C1CCC(F)(F)CC1)N1CCC(n2cnc(-c3ccc(F)cc3)c2)CC1` [Example 261], 399%.
Still for that read-out and setting: under `O=C(C1CCOCC1)N1CCC(n2cnc(-c3ccc(C(F)(F)F)cc3)c2Cl)CC1` [Example 262] stands 603%; under `CC(C)(F)C(=O)N1CCC(n2cnc(-c3ccc(F)cc3)c2Cl)CC1` [Example 263], 193%.
Regarding `O=C(C1CCOCC1)N1CCC(n2cnc(-c3ccc(Cl)cc3)c2Cl)CC1` [Example 264], the activity at 10 µM (10 μM test compound) was 781%.
On the same count and under the same terms, under `COc1ccc(-c2ncn(C3CCN(C(=O)C4CCC(F)(F)CC4)CC3)c2C#N)cc1` [Example 265] stands 990%.
Consider `CC(C)(F)C(=O)N1CCC(n2cnc(-c3ccc(F)cc3)c2C#N)CC1` [Example 266], for which the activity at 10 µM (10 μM test compound) is 149%.
Still for that read-out and setting: the value for `N#Cc1c(-c2ccc(F)cc2)ncn1C1CCN(C(=O)C2CC(F)(F)C2)CC1` [Example 267] was 594%; that for `N#Cc1c(-c2ccccc2)ncn1C1CCN(C(=O)C2CC(F)(F)C2)CC1` [Example 268] was 725%.
Same read-out and setting: the value for `N#Cc1c(-c2cccc(F)c2)ncn1C1CCN(C(=O)C2CC(F)(F)C2)CC1` [Example 269] was 452%; that for `N#Cc1c(-c2ccccc2F)ncn1C1CCN(C(=O)C2CC(F)(F)C2)CC1` [Example 270] was 569%; that for `N#Cc1c(-c2ccc(F)cc2F)ncn1C1CCN(C(=O)C2CCC(F)(F)CC2)CC1` [Example 271] was 275%.
On the same count and under the same terms, the value for `N#Cc1c(-c2cccc(F)c2F)ncn1C1CCN(C(=O)C2CCC(F)(F)CC2)CC1` [Example 272] was 138%.
Regarding `N#Cc1c(-c2ccc(F)c(F)c2)ncn1C1CCN(C(=O)C2CCC(F)(F)CC2)CC1` [Example 273], the activity at 10 µM (10 μM test compound) was 139%.
Same read-out and setting: under `N#Cc1c(-c2cc(F)ccc2F)ncn1C1CCN(C(=O)C2CCC(F)(F)CC2)CC1` [Example 274] stands 351%; under `Cc1c(-c2ccc(F)cc2)ncn1C1CCN(C(=O)C2CCC(F)(F)CC2)CC1` [Example 275], 912%; under `Cc1c(-c2ccc(F)cc2)ncn1C1CCN(C(=O)C2CCOCC2)CC1` [Example 276], 244%.
Regarding `CC(C)(F)C(=O)N[C@H]1CC[C@@H](n2cnc(-c3ccc(F)cc3)c2)CC1` [Example 277], where the note is “10 μM test compound”, the “α7PAM (%) @10 μM” value is on record as 424%.
For `CC(C)(F)C(=O)N[C@H]1CC[C@@H](n2cnc(-c3ccc(OC(F)(F)F)cc3)c2)CC1` [Example 278], the activity at 10 µM (10 μM test compound) amounted to 834%.
On the same count and under the same terms, the value for `CC(C)(C)C(=O)N[C@H]1CC[C@@H](n2cnc(-c3ccc(OC(F)(F)F)cc3)c2)CC1` [Example 279] was 236%; that for `CC(C)(C)C(=O)N[C@H]1CC[C@@H](n2cnc(-c3ccc(Cl)cc3)c2)CC1` [Example 281] was 411%.
Regarding `O=C(N[C@H]1CC[C@@H](n2cnc(-c3ccc(F)cc3)c2)CC1)C1CCOCC1` [Example 282], the activity at 10 µM (10 μM test compound) turned out to be 229%.
On the same count and under the same terms, under `CC(C)(F)C(=O)N[C@H]1CC[C@@H](n2cnc(-c3ccc(Cl)cc3F)c2)CC1` [Example 283, N-{cis-4-[4-(4-chloro-2-fluorophenyl)-1H-imidazol-1-yl]cyclohexyl}-2-fluoro-2-methylpropanamide] stands 390%; under `CC(C)(F)C(=O)N[C@H]1CC[C@@H](n2cnc(-c3cc(Cl)ccc3F)c2)CC1` [Example 284], 398%.
On to `COc1ccc(-c2cn([C@H]3CC[C@@H](NC(=O)C(C)(C)F)CC3)cn2)cc1` [Example 285], for which, where the note is “10 μM test compound”, the activity at 10 µM stood at 869%.
Still for that read-out and setting: the value for `CC(C)(F)C(=O)N[C@H]1CC[C@@H](n2cnc(-c3cccc(Cl)c3)c2)CC1` [Example 286] was 469%; that for `CC(F)(F)C(=O)N[C@H]1CC[C@@H](n2cnc(-c3ccc(F)cc3)c2)CC1` [Example 288] was 327%.
For `O=C(N[C@H]1CC[C@@H](n2cnc(-c3ccc(F)cc3)c2)CC1)C(F)F` [Example 289], the activity at 10 µM (10 μM test compound) stood at 125%.
Same read-out and setting: under `CC(C)(C(=O)N[C@H]1CC[C@@H](n2cnc(-c3ccc(F)cc3)c2)CC1)C(F)(F)F` [Example 290] stands 194%.
For the compound `CC(F)(F)C(=O)N[C@H]1CC[C@@H](n2cnc(-c3ccc(Cl)cc3)c2)CC1` [Example 291], the activity at 10 µM (10 μM test compound) stood at 420%.
With `O=C(N[C@H]1CC[C@@H](n2cnc(-c3ccc(Cl)cc3)c2)CC1)C(F)F` [Example 292], the activity at 10 µM (10 μM test compound) turned out to be 101%.
Same read-out and setting: the value for `CC(C)(C(=O)N[C@H]1CC[C@@H](n2cnc(-c3ccc(Cl)cc3)c2)CC1)C(F)(F)F` [Example 293] was 211%.
In the case of `CC(C)(F)C(=O)N[C@H]1CC[C@@H](n2cnc(-c3cccc(F)c3)c2)CC1` [Example 294], the activity at 10 µM (10 μM test compound) was 326%.
Consider `CC(C)(F)C(=O)N[C@H]1CC[C@@H](n2cnc(-c3ccc(F)c(OC(F)(F)F)c3)c2)CC1` [Example 295], for which the activity at 1 µM was determined as 444%.
Consider `CC(C)(F)C(=O)N[C@H]1CC[C@@H](n2cnc(-c3ccc(OC(F)(F)F)c(F)c3)c2)CC1` [Example 296], for which the activity at 1 µM amounted to 589%.
For `CC(C)(F)C(=O)N[C@H]1CC[C@@H](n2cnc(-c3ccccc3F)c2)CC1` [Example 297], the activity at 10 µM (10 μM test compound) is 866%.
Still for that read-out and setting: the value for `CC(C)(F)C(=O)N[C@H]1CC[C@@H](n2cnc(-c3cccc(OC(F)(F)F)c3)c2)CC1` [Example 298] was 166%.
On the same count and under the same terms, under `CC(C)(F)C(=O)N[C@H]1CC[C@@H](n2cnc(-c3cccc(F)c3F)c2)CC1` [Example 299] stands 893%; under `CC(C)(F)C(=O)N[C@H]1CC[C@@H](n2cnc(-c3cc(F)ccc3F)c2)CC1` [Example 301], 828%; under `CC(C)(F)C(=O)N[C@H]1CC[C@@H](n2cnc(-c3cc(F)cc(F)c3)c2)CC1` [Example 302], 325%.
Turning to `CC(C)(F)C(=O)N[C@H]1CC[C@@H](n2cnc(-c3ccc(OC(F)(F)F)cc3F)c2)CC1` [Example 303], the activity at 10 µM (10 μM test compound) amounted to 208%.
Take `CC(C)(F)C(=O)N[C@H]1CC[C@@H](n2cnc(-c3cc(OC(F)(F)F)ccc3F)c2)CC1` [Example 304]: the activity at 1 µM is 600%.
In the case of `COc1ccc(-c2cn([C@H]3CC[C@@H](NC(=O)C(C)(C)F)CC3)cn2)c(F)c1` [Example 307], the activity at 10 µM (10 μM test compound) worked out at 634%.
